In PMC6269719, “Extraction of Antioxidant Components from Bidens pilosa Flowers and Their Uptake by Human Intestinal Caco-2 Cells” (Molecules, 2013):
Blank lines part the entries; values can stand above or below the compound they belong to.

Tests used:
[1] = tested on: Caco-2 cells; test: Bidirectional transport across Caco-2 cell monolayers; conditions: pH 7.4, up to 60 min; for Papp, apical to basolateral flux: A→B, compounds tested within EM 1 mg/mL, mannitol 50 μM, 14-day monolayers
Description: (§1) To investigate the intestinal absorption and transport properties of the three DiCQAs and three PGAs, 14-day cultured Caco-2 monolayer cells were used for the bidirectional transport study.
(§2) It was cultured in Dulbecco’s Modified Eagle Medium (DMEM medium, Hyclone, Logan, UT, USA) containing high glucose (4.5 g/L) plus 10% fetal bovine serum (Biological Industries, Beit Haemek, Israel), 1% L-glutamine and 1% penicillin-streptomycin (Hyclone) at 37 °C, 5% CO2 with constant humidity controlled environment. The medium was replaced three times a week during cell growth and differentiation. Cells used in this study were between passages 25 and 40.
(§3) After the cells in the flask grew to 90%–100% confluency, cells were trypsinized and seeded on 12 mm transwells with 0.4 µm pore polyester membrane insert (product #3460, Corning Inc., Corning, NY, USA) at a density 2 × 10^5 cells/mL. Culture medium (0.5 mL and 1.5 mL, respectively) was added into the space between the transwell and the plate. The culture was incubated at 37 °C under 5% CO2 atmosphere and the medium was changed fresh every 48 h. The transepithelial electrical resistance (TEER) was measured with Millicell-ERS epithelial Voltohmmeter (Millipore, Bedford, MA, USA), which was reflected to the tightness of intercellular junctions and only cells with TEER (in Ω/cm^2) >300 Ω/cm^2 (at 14 day) were used for permeability study.
(§4) Before conducting the permeation test, the trasnswell insert was emerged and rinsed in 25 mM HEPES (pH 7.4 Hank’s Balanced Salt Solution, HBSS) and rinsed twice at 37 °C under 5% CO2 atmosphere, each time for 30 min. The paracellular marker molecule mannitol (low permeability), propranolol (highly permeability), and EM fraction (1 mg/mL) were separately dissolved in DMSO and diluted with HBSS to final concentrations of 50 μM, 10 μM, and 1 mg/mL (at non-cytotoxic concentration), respectively. The solutions were respectively transferred into the apical and basolateral zones of the transwell insert with the other side filled up with HBSS. The same pH (7.4) was used both in apical-to-basolateral (A→B) and basolateral-to-apical (B→A) transport directions during each experiment. The whole apparatus was incubated at 37 °C under 5% CO2 atmosphere and the permeation was examined at time point 5, 15, 30, and 60 min, respectively. Permeates obtained from various direction were analyzed with HPLC and LC-MS according to the aforementioned method. The apparent permeability coefficients (Papp, cm/s) and the efflux ratio were calculated according to the literature: Papp = (V/A × C0) × (dQ/dt) where V is the volume of receiver part (0.5 mL and/or 1.5 mL).
(§5) A is the surface area of the cell monolayer (1.1 cm^2).
(§6) C0 is the initial concentration of the extract (1 mg/mL).
(§7) dQ/dt is the cumulative transport rate (mg/mL/min). Efflux ratio = Papp,B→A/Papp,A→B

[2] = as above; conditions: human, Caco-2, pH 7.4
Description: as §1, §2, §3, §4, §5, §6, §7

[3] = tested on: db/db mice; parameters: method as in doi:10.1016/j.jfca.2010.03.025; conditions: i.p., compared to the other two polyacetylenic glucosides; cited from earlier work

- Papp at 60 min, 10 μM [2]: 39.4 ± 4.12 ×10⁻⁶ cm/s
SMILES: CC(C)NCC(O)COc1cccc2ccccc12 (centres unmarked) [propranolol, reference compound]

- Papp, apical to basolateral flux [1]: lower than the Papp for mannitol
- Papp, basolateral to apical flux ([1]; B→A, compound within EM 1 mg/mL): closed to that of propranolol
SMILES: CC#CC#CC#CC#CCCC(CO)O[C@@H]1O[C@H](CO)[C@@H](O)[C@H](O)[C@H]1O (stereo partly drawn) [PGA 5, 2-β-D-glucopyranosyloxy-1-hydroxytrideca-5,7,9,11-tetrayne]
- Increasing serum insulin, reducing blood glucose levels and glycosylated HbA1c levels [3]: most effective compound

- Papp A→B at 60 min, 50 μM [2]: 0.43 ± 0.1 ×10⁻⁶ cm/s
SMILES: OC[C@@H](O)[C@@H](O)[C@H](O)[C@H](O)CO [mannitol, reference compound]

The next lines start with the compound.

SMILES: CC#CC#CC#C/C=C/CCC(CCO)O[C@@H]1O[C@H](CO)[C@@H](O)[C@H](O)[C@H]1O (stereo partly drawn) [PGA 6, 3-β-D-glucopyranosyloxy-1-hydroxy-6(E)-tetradecene-8,10,12-triyne]
- Papp, apical to basolateral flux [1]: higher than the paracellular transport marker mannitol
- efflux ratio at 60 min, 1 mg/mL [2]: 6.03

SMILES: CC#CC#CC#C/C=C/CCC(CO)O[C@@H]1O[C@H](CO)[C@@H](O)[C@H](O)[C@H]1O (stereo partly drawn) [PGA 4, 2-β-D-glucopyranosyloxy-1-hydroxy-5(E)-tridecene-7,9,11-triyne]
- Papp, apical to basolateral flux [1]: higher than the paracellular transport marker mannitol
- efflux ratio at 60 min, 1 mg/mL [2]: 32.1

SMILES: O=C(/C=C/c1ccc(O)c(O)c1)O[C@@H]1[C@@H](OC(=O)/C=C/c2ccc(O)c(O)c2)C[C@@](O)(C(=O)O)C[C@@H]1O [DiCQA 1, 3,4-di-O-caffeoylquinic acid]
- Papp, apical to basolateral flux [1]: higher than the paracellular transport marker mannitol

SMILES: O=C(/C=C/c1ccc(O)c(O)c1)O[C@H]1[C@H](O)C[C@](O)(C(=O)O)C[C@H]1OC(=O)/C=C/c1ccc(O)c(O)c1 [DiCQA 3, 4,5-di-O-caffeoylquinic acid]
- Papp, apical to basolateral flux [1]: higher than the paracellular transport marker mannitol
